Data taken from BindingDB's records for doi:10.1016/j.bmcl.2004.06.037 (Alcon Research, 2004).

Molecular target: Prostaglandin F2-alpha receptor (Mus musculus) (UniProt P43117)
Assay: Efficacy for stimulation of prostanoid FP receptor-linked phosphoinositide turnover in Swiss 3T3 mouse fibroblast cells

Chain of Prostaglandin F2-alpha receptor (Mus musculus) (P43117 whole entry, looked up): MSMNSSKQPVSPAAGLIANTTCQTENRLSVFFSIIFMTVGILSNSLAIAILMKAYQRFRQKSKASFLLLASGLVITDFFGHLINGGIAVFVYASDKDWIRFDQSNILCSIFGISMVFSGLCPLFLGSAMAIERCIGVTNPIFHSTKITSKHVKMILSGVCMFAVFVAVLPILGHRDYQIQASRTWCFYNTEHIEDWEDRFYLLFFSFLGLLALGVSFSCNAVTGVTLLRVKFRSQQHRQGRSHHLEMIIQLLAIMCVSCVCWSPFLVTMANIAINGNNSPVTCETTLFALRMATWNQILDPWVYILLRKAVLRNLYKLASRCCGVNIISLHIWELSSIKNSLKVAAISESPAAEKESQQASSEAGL

EC50 [nM] | Compound
252 | O=C(O)CC/C=C\CCC[C@H]1[C@@H](O)CO[C@@H]1/C=C/[C@H](O)COc1ccccc1 [(Z)-8-[(2R,3S,4R)-4-Hydroxy-2-((E)-(S)-3-hydroxy-4-phenoxy-but-1-enyl)-tetrahydro-furan-3-yl]-oct-4-enoic acid]
23 | O=C(O)CC/C=C\CCC[C@H]1[C@@H](O)CO[C@@H]1/C=C/[C@@H](O)COc1cccc(Cl)c1 [(Z)-8-{(2R,3S,4R)-2-[(E)-(R)-4-(3-Chloro-phenoxy)-3-hydroxy-but-1-enyl]-4-hydroxy-tetrahydro-furan-3-yl}-oct-4-enoic acid]
249 | O=C(O)CC/C=C\CCC[C@H]1[C@@H](O)CO[C@@H]1/C=C/[C@H](O)COc1cccc(Cl)c1 [(Z)-8-{(2R,3S,4R)-2-[(E)-(S)-4-(3-Chloro-phenoxy)-3-hydroxy-but-1-enyl]-4-hydroxy-tetrahydro-furan-3-yl}-oct-4-enoic acid]
573 | O=C(O)CCCC/C=C\C[C@H]1[C@@H](O)CO[C@@H]1/C=C/[C@H](O)COc1ccccc1 [(Z)-8-[(R)-4-Hydroxy-2-((1R,2S,4S)-3-hydroxy-4-phenoxy-but-1-enyl)-tetrahydro-furan-3-yl]-oct-6-enoic acid]
2380 | CCCCC[C@H](O)/C=C/[C@H]1OC[C@H](O)[C@@H]1C/C=C\CCCC(=O)O [(Z)-7-[(2R,3S,4R)-4-Hydroxy-2-((E)-(S)-3-hydroxy-oct-1-enyl)-tetrahydro-furan-3-yl]-hept-5-enoic acid]
293 | O=C(O)CCCC/C=C\C[C@H]1[C@@H](O)CO[C@@H]1/C=C/[C@@H](O)COc1ccccc1 [(Z)-8-[(2R,3S,4R)-4-Hydroxy-2-((E)-(R)-3-hydroxy-4-phenoxy-but-1-enyl)-tetrahydro-furan-3-yl]-oct-6-enoic acid]
2.7 | CC(C)OC(=O)CCC/C=C/C[C@@H]1[C@@H](/C=C/C(O)COc2cccc(C(F)(F)F)c2)[C@H](O)C[C@@H]1O (stereo partly drawn) [(E)-7-{(1R,2R,3R,5S)-3,5-Dihydroxy-2-[(E)-3-hydroxy-4-(3-trifluoromethyl-phenoxy)-but-1-enyl]-cyclopentyl}-hept-5-enoic acid isopropyl ester]
57 | O=C(O)CC/C=C\CCC[C@H]1[C@@H](O)CO[C@@H]1/C=C/[C@@H](O)COc1ccccc1 [(Z)-8-[(2R,3S,4R)-4-Hydroxy-2-((E)-(R)-3-hydroxy-4-phenoxy-but-1-enyl)-tetrahydro-furan-3-yl]-oct-4-enoic acid]
58 | O=C(O)CCCC/C=C\C[C@H]1[C@@H](O)CO[C@@H]1/C=C/[C@@H](O)COc1cccc(Cl)c1 [(Z)-8-{(2R,3S,4R)-2-[(E)-(R)-4-(3-Chloro-phenoxy)-3-hydroxy-but-1-enyl]-4-hydroxy-tetrahydro-furan-3-yl}-oct-6-enoic acid]
67 | O=C(O)CC/C=C\CCC[C@H]1[C@@H](O)CO[C@@H]1/C=C/[C@@H](O)COc1cccc(C(F)(F)F)c1 [(Z)-8-{(2R,3S,4R)-4-Hydroxy-2-[(E)-(R)-3-hydroxy-4-(3-trifluoromethyl-phenoxy)-but-1-enyl]-tetrahydro-furan-3-yl}-oct-4-enoic acid]
194 | O=C(O)CCCC/C=C\C[C@H]1[C@@H](O)CO[C@@H]1/C=C/[C@H](O)COc1cccc(Cl)c1 [(Z)-8-{(2R,3S,4R)-2-[(E)-(S)-4-(3-Chloro-phenoxy)-3-hydroxy-but-1-enyl]-4-hydroxy-tetrahydro-furan-3-yl}-oct-6-enoic acid]
187 | O=C(O)CCCC/C=C\C[C@H]1[C@@H](O)CO[C@@H]1/C=C/[C@@H](O)COc1cccc(C(F)(F)F)c1 [(Z)-8-{(2R,3S,4R)-4-Hydroxy-2-[(E)-(R)-3-hydroxy-4-(3-trifluoromethyl-phenoxy)-but-1-enyl]-tetrahydro-furan-3-yl}-oct-6-enoic acid]
781 | O=C(O)CC/C=C\CCC[C@H]1[C@@H](O)CO[C@@H]1/C=C/[C@H](O)COc1cccc(C(F)(F)F)c1 [(Z)-8-{(2R,3S,4R)-4-Hydroxy-2-[(E)-(S)-3-hydroxy-4-(3-trifluoromethyl-phenoxy)-but-1-enyl]-tetrahydro-furan-3-yl}-oct-4-enoic acid]
> 10000 | CCCCC[C@@H](O)/C=C/[C@H]1OC[C@H](O)[C@@H]1C/C=C\CCCC(=O)O [(Z)-7-[(2R,3S,4R)-4-Hydroxy-2-((E)-(R)-3-hydroxy-oct-1-enyl)-tetrahydro-furan-3-yl]-hept-5-enoic acid]
899 | O=C(O)CCCC/C=C\C[C@H]1[C@@H](O)CO[C@@H]1/C=C/[C@H](O)COc1cccc(C(F)(F)F)c1 [(Z)-8-{(2R,3S,4R)-4-Hydroxy-2-[(E)-(S)-3-hydroxy-4-(3-trifluoromethyl-phenoxy)-but-1-enyl]-tetrahydro-furan-3-yl}-oct-6-enoic acid]
34.4 | CC(C)OC(=O)CCC/C=C/C[C@@H]1[C@@H](CC[C@@H](O)CCc2ccccc2)[C@H](O)C[C@@H]1O [LATANOPROST (PHXA41)]
